Results taken from patent US20130047297A1, “POLYNUCLEOTIDE MOLECULES FOR GENE REGULATION IN PLANTS” (priority 2010, published 2013).
{AF488} = Alexa Fluor 488 fluorescent label (Invitrogen)

How the values were obtained:
endogenous EPSPS = experiment: EPSPS mRNA, EPSPS protein and shikimate in detached leaves after anti-sense ssDNA petiole uptake (Example 9); design: species or system Amaranthus palmeri; details: for increasing glyphosate efficacy, shikimate accumulation: 50 microgram/mL glyphosate; for suppressing levels of EPSPS mRNA and protein: 48 h incubation, #1 5 microM, #6 5 microM each (20 microM total), compared with other treatments
Method: Petioles of detached leaves of glyphosate-resistant Palmer amaranth were placed in 200 mM sucrose solution with oligonucleotides according to the treatments listed in Table 2. Control leaves were permeated with the anti-sense control (SEQ ID NO:14), and additionally treated with or without 50 micrograms/mL glyphosate. EPSPS mRNA, EPSPS protein, and shikimate levels were measured after 48 h incubation. To assess the effects of anti-sense ssDNA oligonucleotides on EPSPS mRNA, total leaf RNA was isolated and quantitative real-time RT-PCR was performed to compare EPSPS mRNA levels. To assess the effects of anti-sense ssDNA oligonucleotides on EPSPS protein, total leaf soluble protein was isolated, separated by SDS-PAGE, and EPSPS protein levels measured by Western blot using antibodies against maize EPSPS_TIPA. Effects of anti-sense ssDNA oligonucleotides on shikimate accumulation as an indication of suppression of EPSPS were assessed in two experiments: in experiment 1, the oligonucleotide-treated leaves were incubated with 50 microgram/mL glyphosate for an additional 48 h either by petiole uptake (control leaves were permeated with the anti-sense control (SEQ ID NO:14), and additionally treated with or without 50 micrograms/mL glyphosate); in experiment 2, leaf disc assays were performed on the oligonucleotide-treated leaves, and shikimate levels measured by HPLC (controls in this case were leaves that had not been treated with oligonucleotides but incubated with 50 microgram/mL glyphosate).

[1] = system: detached leaves of glyphosate-resistant Palmer amaranth; experiment: Petiole uptake of fluorescently labelled ssDNA oligonucleotide in detached leaves (Example 9); design: species or system Amaranthus palmeri
Method: Petioles of detached leaves of glyphosate-resistant Palmer amaranth were placed in 200 mM sucrose solution with fluorescently labelled ssDNA oligonucleotides (SEQ ID NO:15). Leaf images were taken by Bio-Rad PharosFX imager equipped with a 488 nm laser from 4 h up to 48 h after uptake through petiole. Leaves incubated with 200 mM sucrose alone served as control.

[2] = system: phytoene desaturase (PDS) gene in lettuce (Lactuca sativa); experiment: Topical PDS ssDNA on lettuce, bleaching (Example 24); format: in vivo; details: 8 nanomoles polynucleotide per plant (mixture: 2 nanomoles each); observed at 4
Method: Lettuce variety LS49 “Green Tower” was used in the assays. Two fully expanded leaves of each plant were dipped into a freshly made 0.1% Silwet L-77 in double-distilled water solution for a few seconds. The leaves were allowed to dry for 15-30 minutes. Each plant was then treated by applying 20 microliters ssDNA solution to the top surface of two Silwet-treated leaves (total 40 microliters per plant). Table 9 lists the assay conditions used and the observed bleaching of plants topically treated with ssDNA polynucleotides.
The assays were repeated with 2 or 4 nanomoles ssDNA applied per plant.
The assays were repeated using each individual anti-sense ssDNAs (“HL287”, SEQ ID NO:55; “HL288”, SEQ ID NO:56; “HL289”, SEQ ID NO:57; and “HL290”, SEQ ID NO:58) with 8 nanomoles polynucleotide applied per plant; positive control plants were treated with a mixture of the four individual anti-sense ssDNAs at 2 nanomoles each (for a total of 8 nanomoles polynucleotide applied per plant) and negative control plants were treated only with buffer.

[3] = system: Nicotiana benthamiana phytoene desaturase; experiment: Single PDS ssDNA oligonucleotide treatment, systemic silencing in organs and seed set (Example 12); format: in vivo
Method: Four-week old tobacco (Nicotiana benthamiana) plants were used in all treatments. Two fully expanded leaves (one cotyledon, one true leaf) were conditioned by dipping into freshly made surfactant solution (0.1% Silwet L-77 in double-distilled water) for a few seconds and allowed to dry for 15-30 minutes. Twenty microliters of a single-stranded DNA (ssDNA) 22-mer oligonucleotide with the sequence […] (SEQ ID NO:39), corresponding to the nucleotides at positions 1099-1120 of Nicotiana benthamiana phytoene desaturase (SEQ ID NO:2) was applied as a 25 micromolar solution in 0.01% Silwet L-77 in 5 millimolar sodium phosphate buffer, pH 6.8 to the top surface of each conditioned leaf for a total of 40 microliters (1 nanomole oligonucleotide) per plant. Control plants were treated with the Silwet solution without the DNA oligonucleotide.
Flowers of both control and ssDNA-treated plants were allowed to set seed. Seeds were collected from mature fruits, weighed, and allowed to germinate. Seed weights were identical (about 11 mg per 100 seeds) and seed morphology appeared similar between the ssDNA-treated and the control plants.
In a separate assay using a similar procedure, tobacco plants were conditioned by dipping in 0.1% Silwet L-77 in double-distilled water, allowed to dry for 15-30 minutes, and treated with the PDS ssDNA 22-mer (SEQ ID NO:39) applied as a 25 micromolar solution in 0.01% Silwet L-77 in 5 millimolar sodium phosphate buffer, pH 6.8 to the top surface of each conditioned leaf for a total of 40 microliters (1 nanomole oligonucleotide) per plant. Other plants were not conditioned with a surfactant treatment, but were treated only with 1 nanomole of the PDS ssDNA 22-mer (SEQ ID NO:39) applied either by infiltration with a needleless syringe (shown in FIG. 18B) or by hand application of drops to the leaf surface (not shown in FIG. 18B), and either as a 25 micromolar solution in 0.01% Silwet L-77 in 5 millimolar sodium phosphate buffer, pH 6.8 or as a 25 micromolar solution in 5 millimolar sodium phosphate buffer, pH 6.8 (without surfactant). Negative control plants were treated with the Silwet buffer solution without the DNA oligonucleotide. Results are depicted in FIG. 18B.

[4] = system: phytoene desaturase (PDS) gene in tomato (Solanum lycopersicum); experiment: Topical PDS dsRNA on tomato (Example 25); format: in vivo; details: 2.5 micromolar dsRNA, 40 microliters per plant
Excerpt: A 201 nucleotide dsRNA polynucleotide with an anti-sense strand capable of hybridizing to the RNA encoded by the sequence […] […] […] AG (SEQ ID NO:60) which correspond to the nucleotides at positions 1724-1923 of the mRNA transcribed from the tomato PDS gene sequence (SEQ ID NO:59) was synthesized by RT PCR using oligonucleotide primers with the sequences […] (SEQ ID NO:61, sense primer) and […] (SEQ ID NO:62, anti-sense primer). A 2.5 micromolar dsRNA solution was made with the 201 nucleotide dsRNA polynucleotide (SEQ ID NO:60) in 0.01% Silwet L-77 in 5 millimolar sodium phosphate buffer, pH 6.8.
Three-week old tomato seedlings were treated as follows. Two fully expanded leaves were dipped into a freshly made 0.1% Silwet L-77 solution in double-distilled water for a few seconds. The leaves were allowed to dry for 30 minutes to 1 hour. Each plant was then treated by applying 20 microliters dsRNA solution to the top surface of two Silwet-treated leaves (total 40 microliters per plant). Control plants were treated with buffer. The plants were kept in a growth chamber for observation. FIG. 30 depicts the systemic silencing of the target gene PDS as evidenced by bleaching of the dsRNA-treated plants 30 days after topical treatment.

[5] = system: endogenous PDS, EPSPS, or RuBisCO genes from Nicotiana benthamiana; experiment: PDS, EPSPS, RuBisCO anti-sense polynucleotides on Nicotiana benthamiana, plant height (Example 33); format: in vivo; details: PDS 25 nanomoles, EPSPS and RuBisCO 50 nanomoles of each per plant
Method: Nicotiana benthamiana plants were treated using a procedure similar to that described in Example 12. Polynucleotide solution (or mixed polynucleotides in the case of EPSPS and RuBisCO) were prepared in 0.01% (v/v) Silwet L-77 and 2% (w/v) ammonium sulfate in 5 millimolar sodium phosphate, pH 6.8. Two fully expanded leaves per plant were dipped into 0.1% Silwet L-77 solution freshly made with ddH2O for a few seconds, and allowed to dry. About 30 minutes later, 20 microliters of polynucleotide solution, was applied to each of the two pre-treated leaves. For PDS, each of 5 plants received 25 nanomoles of the PDS anti-sense polynucleotide (SEQ ID NO:34); for EPSPS, each of 5 plants received 50 nanomoles of each EPSPS anti-sense polynucleotide (SEQ ID NOS:279-284); and for RuBisCO, each of 5 plants received 50 nanomoles of each RuBisCO anti-sense polynucleotide (SEQ ID NOS:288-295). Paired control plants were treated with buffer (0.01% (v/v) Silwet L-77 and 2% (w/v) ammonium sulfate in 5 millimolar sodium phosphate, pH 6.8).

Anti-sense_PO1: SEQ ID NO:8, ssDNA anti-sense to Amaranthus palmeri EPSPS (antisense ACCCTCCACGACTGCCCTTT; listed as DNA, chemistry not fully specified; listed as Amaranthus palmeri)
increasing glyphosate efficacy, shikimate accumulation (endogenous EPSPS): increased accumulation of shikimate | suppressing levels of EPSPS mRNA and protein (endogenous EPSPS): more efficacious

Anti-sense_PO1_488: SEQ ID NO:15, 5′-labelled with Alexa Fluor 488 (antisense ACCCTCCACGACTGCCCTTT; DNA, 5' {AF488}, backbone not given here; listed as Amaranthus palmeri)
distribution in leaf ([1]; at 24 h and 48 h): accumulate at the leaf edge | vascular uptake into leaf ([1]; petiole in 200 mM sucrose, imaged 4 h up to 48 h): slightly time-dependent vascular uptake | release from vascular tissue into cells, as early as (time after treatment) ([1]; petiole uptake): 8 h

HL288: SEQ ID NO:56, anti-sense ssDNA, lettuce PDS (antisense CCATTCAATGGTGCAGGTAAAAC; DNA, backbone not given here)
systemic silencing (FIG. 29B) [2]: systemic silencing evidenced by bleaching

HL289: SEQ ID NO:57, anti-sense ssDNA, lettuce PDS (antisense CATAGAATGCTCCTTCCACTG; DNA, backbone not given here)
systemic silencing (FIG. 29B) [2]: systemic silencing evidenced by bleaching

HL290: SEQ ID NO:58, anti-sense ssDNA, lettuce PDS (antisense CAAATAAATTTTGTACATTTGGGTAAGCTCCAA; DNA, backbone not given here)
systemic silencing (FIG. 29B) [2]: systemic silencing evidenced by bleaching

PDS ssDNA 22-mer: SEQ ID NO:39, GGCAGTACAATTAAAGGAGATG, positions 1099-1120 of SEQ ID NO:2 (DNA, backbone not given here; listed as Nicotiana benthamiana)
amount of seed produced per fruit ([3]; compared to control plants): reduced amount of seed produced per fruit | bleaching of apical leaves, stems, and flowers ([3]; leaves conditioned with 0.1% Silwet L-77, 1 nanomole per plant): all displayed bleaching | germination rate ([3]; seeds from treated plants, control 95 out of 100): 4 out of 100 | seed weight ([3]; seeds from treated plants, identical to control): about 11 mg per 100 seeds | bleaching of apical leaves, stems, and flowers ([3]; without conditioning by Silwet L-77, 1 nanomole by infiltration or hand application of drops): displayed bleaching of apical leaves, stems, and flowers

B1: 201 nucleotide dsRNA polynucleotide: dsRNA to SEQ ID NO:60, positions 1724-1923 of tomato PDS mRNA (nucleic acid)
sense: TCGCAGCGACTCAGAAATTATTGATGCAACGATGAAGGAACTAGCAACGCTTTTTCCTGATGAAATTTCAGCAGATCAAAGCAAAGCAAAAATATTGAAGTACCATGTTGTCAAAACTCCGAGGTCTGTTTATAAAACTGTGCCAGGTTGTGAACCCTGTCGGCCTTTACAAAGATCCCCAATAGAGGGGTTTTATTTAG
modifications: complementary strand
plant growth compared to control plants [4]: severely stunted | systemic silencing of PDS (FIG. 30) ([4]; 30 days after topical treatment): bleaching

B2: #6: Anti-sense_PO1, PO2, PO3, PO4 (SEQ ID NOs: 8, 9, 10, 11) (nucleic acid, listed as Amaranthus palmeri)
antisense 1: ACCCTCCACGACTGCCCTTT
antisense 2: GTTTCCTTCACTCTCCAGC
antisense 3: GTAGCTTGAGCCATTATTGT
antisense 4: GTTGATGGTAGTAGCTTGAG
modifications: DNA, backbone not given here
increasing glyphosate efficacy, shikimate accumulation (endogenous EPSPS): increased accumulation of shikimate | suppressing levels of EPSPS mRNA and protein (endogenous EPSPS): more efficacious

B3: EPSPS anti-sense polynucleotides: SEQ ID NOS:279-284, anti-sense to Nicotiana benthamiana EPSPS (nucleic acid)
antisense 1: CTGTGATCATCATATGTATCA
antisense 2: CCTTAACTCTCCAGCTAGCAA
antisense 3: CAGCCCGCAAATGTTTCATTC
antisense 4: GCCGTCAATGGCCGCATTGCT
antisense 5: TCCTTCCCTCAGAAAGGGCAG
antisense 6: TTGCCTCATGCTGCTAATCTG
modifications: listed as DNA, chemistry not given here
plant height (FIG. 36) ([5]; 12 days (PDS and EPSPS) or 10 days (RuBisCO) after treatment): severe stunting | other phenotype [5]: severe damage to the meristem and stem tissues
